Columns and labels:
Type in all cases: binding
[1] = biological target: T1, HeLa cell extract proteins (Homo sapiens, UniProt O14980); settings: HeLa; captured protein XPO1
T1 construct: endogenous in cells; host or cells: HeLa cell extract

[2] = biological target: T2, HeLa cell extract proteins (Homo sapiens, UniProt P00403); settings: protein COX2; HeLa
T2 construct: endogenous in cells; host or cells: HeLa cell extract

[3] = biological target: T3, HeLa cell extract proteins (Homo sapiens, UniProt P30876); settings: protein POLR2B; HeLa
T3 construct: endogenous in cells; host or cells: HeLa cell extract

[4] = biological target: T4, HeLa cell extract proteins (Homo sapiens, UniProt P36542); settings: HeLa; captured protein ATP5C1
T4 construct: endogenous in cells; host or cells: HeLa cell extract
T4 sequence (P36542 26-298): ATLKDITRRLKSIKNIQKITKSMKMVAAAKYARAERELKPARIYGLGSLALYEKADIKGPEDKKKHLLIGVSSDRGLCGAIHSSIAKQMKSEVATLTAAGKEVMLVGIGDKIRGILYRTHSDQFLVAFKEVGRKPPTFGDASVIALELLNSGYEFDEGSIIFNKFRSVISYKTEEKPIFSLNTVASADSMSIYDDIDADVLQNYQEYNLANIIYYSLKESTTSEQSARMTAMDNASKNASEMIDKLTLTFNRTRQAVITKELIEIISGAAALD

[5] = biological target: T5, HeLa cell extract proteins (Homo sapiens, UniProt P39019); settings: HeLa; protein RPS19 (40S RIBOSOMAL PROTEIN S19)
T5 construct: endogenous in cells; host or cells: HeLa cell extract

[6] = biological target: T6, HeLa cell extract proteins (Homo sapiens, UniProt P55795); settings: HeLa; captured protein HNRNPH2
T6 construct: endogenous in cells; host or cells: HeLa cell extract
T6 sequence (P55795 1-449): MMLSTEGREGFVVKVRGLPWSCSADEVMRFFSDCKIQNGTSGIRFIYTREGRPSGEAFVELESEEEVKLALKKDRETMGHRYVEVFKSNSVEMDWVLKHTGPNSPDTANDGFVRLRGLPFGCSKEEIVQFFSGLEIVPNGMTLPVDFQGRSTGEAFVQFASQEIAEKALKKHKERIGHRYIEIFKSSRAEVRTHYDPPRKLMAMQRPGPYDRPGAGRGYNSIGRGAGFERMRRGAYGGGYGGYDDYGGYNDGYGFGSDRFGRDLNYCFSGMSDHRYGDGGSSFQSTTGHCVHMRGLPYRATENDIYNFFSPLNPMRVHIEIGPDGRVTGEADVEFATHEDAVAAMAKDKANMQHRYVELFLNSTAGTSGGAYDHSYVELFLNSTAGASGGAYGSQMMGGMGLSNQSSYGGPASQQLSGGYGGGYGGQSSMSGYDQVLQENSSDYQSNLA

[7] = biological target: T7, HeLa cell extract proteins (Homo sapiens, UniProt P56589); settings: HeLa; captured protein PEX3
T7 construct: endogenous in cells; host or cells: HeLa cell extract
T7 sequence (P56589 1-373): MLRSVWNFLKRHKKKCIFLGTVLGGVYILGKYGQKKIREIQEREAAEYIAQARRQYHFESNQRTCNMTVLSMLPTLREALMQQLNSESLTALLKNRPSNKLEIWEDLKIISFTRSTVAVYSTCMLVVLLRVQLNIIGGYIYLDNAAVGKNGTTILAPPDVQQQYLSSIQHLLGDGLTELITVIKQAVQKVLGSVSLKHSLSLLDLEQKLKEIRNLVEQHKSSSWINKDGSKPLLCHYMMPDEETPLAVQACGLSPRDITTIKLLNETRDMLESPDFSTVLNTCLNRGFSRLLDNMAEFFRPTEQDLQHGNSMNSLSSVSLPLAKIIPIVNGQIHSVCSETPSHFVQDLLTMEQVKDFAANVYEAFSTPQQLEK

[8] = biological target: T8, HeLa cell extract proteins (Homo sapiens, UniProt Q08380); settings: HeLa; protein LGALS3BP (GALECTIN-3-BINDING PROTEIN PRECURSOR)
T8 construct: endogenous in cells; host or cells: HeLa cell extract
T8 sequence (Q08380 19-585): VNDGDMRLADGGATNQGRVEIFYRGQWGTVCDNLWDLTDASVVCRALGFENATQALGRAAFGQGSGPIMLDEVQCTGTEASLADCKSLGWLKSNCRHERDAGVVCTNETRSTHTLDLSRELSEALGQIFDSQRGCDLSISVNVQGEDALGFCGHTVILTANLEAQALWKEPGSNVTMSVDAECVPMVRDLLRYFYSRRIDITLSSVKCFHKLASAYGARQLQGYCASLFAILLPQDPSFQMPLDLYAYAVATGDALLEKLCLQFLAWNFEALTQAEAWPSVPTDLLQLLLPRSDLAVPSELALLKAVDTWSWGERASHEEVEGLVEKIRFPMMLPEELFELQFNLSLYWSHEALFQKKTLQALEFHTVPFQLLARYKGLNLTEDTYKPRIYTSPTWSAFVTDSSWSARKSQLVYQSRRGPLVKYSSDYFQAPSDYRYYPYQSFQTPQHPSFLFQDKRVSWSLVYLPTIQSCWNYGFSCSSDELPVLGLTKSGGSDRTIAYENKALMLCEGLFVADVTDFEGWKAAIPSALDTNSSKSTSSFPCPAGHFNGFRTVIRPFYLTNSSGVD

[9] = biological target: T9, HeLa cell extract proteins (Homo sapiens, UniProt Q13315); settings: HeLa; protein ATM
T9 construct: endogenous in cells; host or cells: HeLa cell extract

[10] = biological target: T10, HeLa cell extract proteins (Homo sapiens, UniProt Q13347); settings: HeLa; captured protein EIF3I
T10 construct: endogenous in cells; host or cells: HeLa cell extract

[11] = biological target: T11, HeLa cell extract proteins (Homo sapiens, UniProt Q6P1J9); settings: protein CDC73; HeLa
T11 construct: endogenous in cells; host or cells: HeLa cell extract

[12] = biological target: T12, HeLa cell extract proteins (Homo sapiens, UniProt Q7Z3U7); settings: HeLa; captured protein MON2
T12 construct: endogenous in cells; host or cells: HeLa cell extract

[13] = biological target: T13, HeLa cell extract proteins (Homo sapiens, UniProt Q99439); settings: HeLa; captured protein CNN2
T13 construct: endogenous in cells; host or cells: HeLa cell extract
T13 sequence (Q99439 1-309): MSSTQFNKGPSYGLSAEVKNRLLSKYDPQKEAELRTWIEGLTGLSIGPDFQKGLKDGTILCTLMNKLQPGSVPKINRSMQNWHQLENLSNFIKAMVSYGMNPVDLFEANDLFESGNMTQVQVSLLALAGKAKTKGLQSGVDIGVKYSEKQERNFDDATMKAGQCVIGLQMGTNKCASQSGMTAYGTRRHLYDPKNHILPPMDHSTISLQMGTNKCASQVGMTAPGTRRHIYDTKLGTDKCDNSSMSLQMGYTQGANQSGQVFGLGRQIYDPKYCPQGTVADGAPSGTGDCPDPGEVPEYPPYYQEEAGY

T12 sequence (Q7Z3U7 whole entry): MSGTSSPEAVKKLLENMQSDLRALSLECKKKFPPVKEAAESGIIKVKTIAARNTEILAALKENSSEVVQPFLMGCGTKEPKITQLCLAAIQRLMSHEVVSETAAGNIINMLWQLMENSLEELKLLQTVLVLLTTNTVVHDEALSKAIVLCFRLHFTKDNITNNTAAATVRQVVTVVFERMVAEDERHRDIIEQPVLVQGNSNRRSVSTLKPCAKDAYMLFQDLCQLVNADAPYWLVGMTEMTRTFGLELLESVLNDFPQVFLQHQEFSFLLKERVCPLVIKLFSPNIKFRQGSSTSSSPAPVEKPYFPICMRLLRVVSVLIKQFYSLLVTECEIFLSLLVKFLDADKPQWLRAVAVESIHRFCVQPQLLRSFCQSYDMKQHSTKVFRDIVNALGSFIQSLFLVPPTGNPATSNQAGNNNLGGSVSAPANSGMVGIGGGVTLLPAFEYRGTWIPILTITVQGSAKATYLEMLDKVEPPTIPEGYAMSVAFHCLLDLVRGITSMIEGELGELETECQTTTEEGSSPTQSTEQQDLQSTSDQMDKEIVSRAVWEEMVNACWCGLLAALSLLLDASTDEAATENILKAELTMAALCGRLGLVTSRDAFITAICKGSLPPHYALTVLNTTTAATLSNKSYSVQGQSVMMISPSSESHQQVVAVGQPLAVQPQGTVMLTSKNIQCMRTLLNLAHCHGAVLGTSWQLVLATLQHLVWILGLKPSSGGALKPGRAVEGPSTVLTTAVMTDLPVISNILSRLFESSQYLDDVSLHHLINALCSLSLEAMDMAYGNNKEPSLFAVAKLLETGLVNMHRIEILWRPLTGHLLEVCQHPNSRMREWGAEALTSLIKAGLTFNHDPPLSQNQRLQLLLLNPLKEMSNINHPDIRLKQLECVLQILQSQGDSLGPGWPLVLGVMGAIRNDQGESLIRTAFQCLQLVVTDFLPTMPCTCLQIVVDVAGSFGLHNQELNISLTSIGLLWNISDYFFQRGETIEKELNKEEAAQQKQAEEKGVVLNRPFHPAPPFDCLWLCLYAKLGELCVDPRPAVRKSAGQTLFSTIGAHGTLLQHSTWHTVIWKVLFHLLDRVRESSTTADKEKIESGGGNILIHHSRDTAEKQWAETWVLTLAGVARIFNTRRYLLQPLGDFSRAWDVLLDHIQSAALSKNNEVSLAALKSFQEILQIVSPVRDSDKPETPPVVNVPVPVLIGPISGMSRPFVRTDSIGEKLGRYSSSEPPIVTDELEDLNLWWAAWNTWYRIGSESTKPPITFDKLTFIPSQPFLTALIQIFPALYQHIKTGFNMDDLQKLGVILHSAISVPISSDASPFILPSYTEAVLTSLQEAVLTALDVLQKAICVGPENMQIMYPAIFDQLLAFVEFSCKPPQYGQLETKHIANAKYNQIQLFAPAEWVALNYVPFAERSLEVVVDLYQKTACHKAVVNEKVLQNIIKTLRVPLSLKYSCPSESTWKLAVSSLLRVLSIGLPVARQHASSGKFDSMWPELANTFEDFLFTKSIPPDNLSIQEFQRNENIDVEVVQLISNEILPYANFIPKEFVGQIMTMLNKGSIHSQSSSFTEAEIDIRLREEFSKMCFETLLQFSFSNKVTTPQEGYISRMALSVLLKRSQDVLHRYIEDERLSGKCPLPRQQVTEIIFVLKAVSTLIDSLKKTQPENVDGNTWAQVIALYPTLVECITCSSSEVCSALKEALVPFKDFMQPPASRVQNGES
T10 sequence (Q13347 whole entry): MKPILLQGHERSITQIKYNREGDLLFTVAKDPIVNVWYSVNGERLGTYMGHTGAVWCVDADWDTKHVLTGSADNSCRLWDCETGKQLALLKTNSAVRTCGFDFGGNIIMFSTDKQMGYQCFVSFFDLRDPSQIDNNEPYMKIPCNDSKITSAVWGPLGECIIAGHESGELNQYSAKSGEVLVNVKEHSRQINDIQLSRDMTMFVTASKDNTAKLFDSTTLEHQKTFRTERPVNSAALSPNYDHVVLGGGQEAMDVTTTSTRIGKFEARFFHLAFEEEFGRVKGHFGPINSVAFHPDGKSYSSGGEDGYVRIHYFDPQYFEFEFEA
T1 sequence (O14980 whole entry): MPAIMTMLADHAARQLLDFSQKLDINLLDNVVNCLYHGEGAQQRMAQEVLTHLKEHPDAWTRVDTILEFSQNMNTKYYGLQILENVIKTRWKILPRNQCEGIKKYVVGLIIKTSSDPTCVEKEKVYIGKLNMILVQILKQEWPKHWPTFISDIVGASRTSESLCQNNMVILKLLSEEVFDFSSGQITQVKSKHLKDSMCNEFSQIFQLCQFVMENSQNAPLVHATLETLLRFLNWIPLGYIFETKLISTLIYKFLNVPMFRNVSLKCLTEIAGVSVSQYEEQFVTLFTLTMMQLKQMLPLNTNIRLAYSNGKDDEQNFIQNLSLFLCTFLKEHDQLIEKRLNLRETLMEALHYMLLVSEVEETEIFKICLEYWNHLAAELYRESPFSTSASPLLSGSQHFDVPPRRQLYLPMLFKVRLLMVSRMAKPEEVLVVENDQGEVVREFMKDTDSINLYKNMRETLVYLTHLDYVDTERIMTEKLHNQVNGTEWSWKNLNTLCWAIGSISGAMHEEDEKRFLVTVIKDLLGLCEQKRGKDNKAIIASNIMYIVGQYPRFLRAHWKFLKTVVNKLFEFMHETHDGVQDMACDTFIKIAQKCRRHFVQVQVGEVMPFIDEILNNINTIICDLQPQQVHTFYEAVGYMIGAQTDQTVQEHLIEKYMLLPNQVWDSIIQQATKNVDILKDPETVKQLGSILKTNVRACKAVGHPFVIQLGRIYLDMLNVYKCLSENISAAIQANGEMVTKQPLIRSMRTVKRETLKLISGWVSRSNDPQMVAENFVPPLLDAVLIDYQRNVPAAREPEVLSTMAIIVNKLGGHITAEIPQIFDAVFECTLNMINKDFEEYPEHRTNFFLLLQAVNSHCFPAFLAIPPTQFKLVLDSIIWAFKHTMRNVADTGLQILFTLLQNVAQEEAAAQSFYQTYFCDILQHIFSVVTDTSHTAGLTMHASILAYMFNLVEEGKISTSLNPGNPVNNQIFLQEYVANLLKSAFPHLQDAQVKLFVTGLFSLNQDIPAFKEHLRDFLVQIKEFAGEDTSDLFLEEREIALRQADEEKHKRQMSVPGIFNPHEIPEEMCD
T2 sequence (P00403 whole entry): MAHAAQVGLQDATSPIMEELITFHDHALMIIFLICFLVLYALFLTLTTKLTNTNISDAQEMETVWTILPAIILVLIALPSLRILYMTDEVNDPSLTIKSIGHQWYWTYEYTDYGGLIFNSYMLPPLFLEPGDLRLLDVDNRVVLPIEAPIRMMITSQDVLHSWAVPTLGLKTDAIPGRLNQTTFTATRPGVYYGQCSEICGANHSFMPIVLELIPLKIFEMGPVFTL

In the case of `NCCCNc1ccc(C(=O)NC(CCC(=O)O)C(=O)O)cc1` (stereo not shown) [compound 7], the “fold changes relative to vehicle control” value [1] is reported as 0.94, the “fold changes relative to vehicle control” value [2] is reported as 1.27 and the “fold changes relative to vehicle control” value [3] is reported as 0.91. The “fold changes relative to vehicle control” value [4] was 0.99, the “fold changes relative to vehicle control” value [5] was 1.06 and the “fold changes relative to vehicle control” value [6] was 0.91. For the same compound, the “fold changes relative to vehicle control” value [7] was 0.97, the “fold changes relative to vehicle control” value [8] was 1.09 and the “fold changes relative to vehicle control” value [9] was 1.09. For the same compound, the “fold changes relative to vehicle control” value [10] was 0.97, the “fold changes relative to vehicle control” value [11] was 0.76 and the “fold changes relative to vehicle control” value [12] was 1.25. For the same compound, the “fold changes relative to vehicle control” value [13] was 1.33.
